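These data come from cells grown in 96-well plates and exposed to compound for 48 hours at five concentrations. At the GI50, growth is halved.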 Active and inactive are the calls of the source. Rule as the data show it: active = GI50 up to about 1.1 µM and inactive = higher.
What was measured:
Test in all cases: DTP human tumour cell line panel, 48 h
OVCAR-4 = system: OVCAR-4
COLO 205 = system: COLO 205
BT-549 = system: BT-549
DU-145 = system: DU-145
HT-29 = system: HT-29
HCT-15 = system: HCT-15
MCF7 = system: MCF7
HL-60 = system: HL-60
A498 = system: A498
MOLT-4 = system: MOLT-4
SNB-19 = system: SNB-19
SK-MEL-28 = system: SK-MEL-28
SF-268 = system: SF-268
UACC-257 = system: UACC-257
U-251 = system: U-251
SW-620 = system: SW-620
Malme-3M = system: Malme-3M
OVCAR-8 = system: OVCAR-8
LOX IMVI = system: LOX IMVI

Measured: GI50

Clc1cccc(Cl)c1/C=N/C12CC3CC(CC(C3)C1)C2
> 10 µM: HCT-15
inactive: OVCAR-4 > 10 µM | COLO 205 > 10 µM | BT-549 > 10 µM | DU-145 > 10 µM | HT-29 > 10 µM | MCF7 > 10 µM | HL-60 > 10 µM | A498 > 10 µM | MOLT-4 > 10 µM | SNB-19 > 10 µM | SK-MEL-28 > 10 µM | SF-268 > 10 µM | UACC-257 > 10 µM | U-251 > 10 µM | SW-620 > 10 µM | Malme-3M > 10 µM | OVCAR-8 > 10 µM | LOX IMVI > 10 µM

CCC(=O)c1cc(C(=O)C(=S)SC)cc(C(=O)C(=S)SC)c1
inactive: OVCAR-4 > 100 µM | COLO 205 > 100 µM | BT-549 > 100 µM | DU-145 > 100 µM | HT-29 > 100 µM | MCF7 > 72.1 µM | HL-60 4.83 µM | A498 > 100 µM | MOLT-4 12 µM | SNB-19 > 100 µM | SK-MEL-28 > 100 µM | SF-268 > 100 µM | UACC-257 > 100 µM | U-251 > 69.3 µM | SW-620 52.8 µM | Malme-3M > 27.3 µM | OVCAR-8 > 100 µM | LOX IMVI 4.19 µM
> 60 µM: HCT-15

CC[C@]12C=CCN3CCC4(c5cc(/N=N/c6ccc([N+](=O)[O-])cc6)c(OC)cc5N(C)[C@H]4[C@@](O)(C(=O)OC)[C@@H]1OC(C)=O)[C@@H]32 (stereo not given in full)
13.5 µM: HCT-15
inactive: OVCAR-4 9.59 µM | COLO 205 4.63 µM | BT-549 72.4 µM | DU-145 22.8 µM | HT-29 10.4 µM | MCF7 11.6 µM | HL-60 7.31 µM | A498 14.1 µM | MOLT-4 3.01 µM | SNB-19 26.6 µM | SK-MEL-28 11.8 µM | SF-268 16.2 µM | UACC-257 14.7 µM | U-251 11.2 µM | SW-620 2.56 µM | Malme-3M 16.1 µM | OVCAR-8 7.46 µM | LOX IMVI 16.3 µM

ClCCN1CCC2(CC1)SSC1(CCN(CCCl)CC1)S2
inactive: OVCAR-4 35.2 µM | COLO 205 15.8 µM | BT-549 35.8 µM | DU-145 37.2 µM | HT-29 48 µM | MCF7 11.6 µM | HL-60 30.7 µM | A498 63.4 µM | MOLT-4 41.5 µM | SNB-19 48 µM | SK-MEL-28 > 100 µM | SF-268 10.8 µM | UACC-257 > 100 µM | U-251 42.1 µM | SW-620 76.6 µM | Malme-3M 29.2 µM | OVCAR-8 > 100 µM | LOX IMVI 31.8 µM
36.2 µM: HCT-15

COc1ccc(C[C@@H](CO)NC2=C(C#N)CCC2)cc1
40.4 µM: HCT-15
inactive: OVCAR-4 32.1 µM | COLO 205 43.7 µM | BT-549 30.4 µM | DU-145 50.6 µM | HT-29 33.4 µM | MCF7 26.9 µM | HL-60 11 µM | A498 31.9 µM | MOLT-4 38.7 µM | SNB-19 > 100 µM | SK-MEL-28 74.1 µM | SF-268 58.9 µM | UACC-257 34.6 µM | U-251 > 100 µM | SW-620 49.2 µM | Malme-3M 34.7 µM | OVCAR-8 64.4 µM | LOX IMVI 23.7 µM

Cc1cc(N(CCC#N)CCC#N)ccc1C(=N/NC(=O)c1cc(Cl)ccc1O)/N=N/c1cccc([N+](=O)[O-])c1
25.5 µM: HCT-15
inactive: OVCAR-4 20.4 µM | COLO 205 16.7 µM | BT-549 22.4 µM | DU-145 27.2 µM | HT-29 26.7 µM | MCF7 16.7 µM | HL-60 14.7 µM | A498 15.5 µM | MOLT-4 6.03 µM | SNB-19 26.5 µM | SK-MEL-28 28.9 µM | SF-268 18.7 µM | UACC-257 31.2 µM | U-251 35.9 µM | SW-620 39.3 µM | Malme-3M 34 µM | OVCAR-8 22.6 µM | LOX IMVI 15.2 µM

CC(=O)Oc1ccc2c(c1)CC[C@@H]1C2[C@@H](O[N+](=O)[O-])C[C@@]2(C)C1CC[C@@H]2O[N+](=O)[O-] (stereo not given in full)
inactive: OVCAR-4 16.3 µM | COLO 205 16.8 µM | BT-549 17.6 µM | DU-145 14.2 µM | HT-29 16.4 µM | MCF7 9.42 µM | HL-60 16.4 µM | A498 18.6 µM | MOLT-4 10.4 µM | SNB-19 16.9 µM | SK-MEL-28 14.5 µM | SF-268 13.3 µM | UACC-257 11.1 µM | U-251 14 µM | SW-620 16.1 µM | Malme-3M 13.7 µM | OVCAR-8 14.6 µM | LOX IMVI 13.7 µM
13.3 µM: HCT-15

O=[N+]([O-])c1ccc2c(c1)C1=NN(c3ccccc3)C(c3ccccc3Br)C1CCC2 (stereo not given)
inactive: OVCAR-4 19.9 µM | COLO 205 33.7 µM | BT-549 13.2 µM | DU-145 16.3 µM | HT-29 16.1 µM | MCF7 11.2 µM | HL-60 7.64 µM | A498 12.1 µM | MOLT-4 6.97 µM | SNB-19 25.7 µM | SK-MEL-28 21.1 µM | SF-268 21.9 µM | UACC-257 19 µM | U-251 25.3 µM | SW-620 9.12 µM | Malme-3M 24.8 µM | OVCAR-8 22.2 µM | LOX IMVI 19.9 µM
13.3 µM: HCT-15

COc1ccccc1NC(=S)N/N=C(/c1ccccc1)c1ccccn1
0.045 µM: HCT-15
inactive: BT-549 2.15 µM | A498 1.38 µM | SNB-19 2.6 µM | SK-MEL-28 1.39 µM
active: OVCAR-4 0.71 µM | COLO 205 0.0173 µM | DU-145 0.325 µM | HT-29 0.0101 µM | MCF7 0.0228 µM | HL-60 < 0.0131 µM | MOLT-4 < 0.0182 µM | SF-268 0.144 µM | UACC-257 < 0.0167 µM | U-251 0.0635 µM | SW-620 0.021 µM | Malme-3M 0.167 µM | OVCAR-8 0.0627 µM | LOX IMVI 0.0254 µM

N/N=C(/CC(O)(C(F)(F)F)C(F)(F)F)c1ccccc1
inactive: OVCAR-4 > 10 µM | COLO 205 > 10 µM | BT-549 > 10 µM | DU-145 > 10 µM | HT-29 > 10 µM | MCF7 > 10 µM | HL-60 > 10 µM | A498 > 10 µM | MOLT-4 > 10 µM | SNB-19 > 10 µM | SK-MEL-28 > 10 µM | SF-268 > 10 µM | UACC-257 > 10 µM | U-251 > 10 µM | SW-620 > 10 µM | Malme-3M > 10 µM | OVCAR-8 > 10 µM | LOX IMVI > 10 µM
> 10 µM: HCT-15

CN(C)c1ccc(/C=C(\NC(=O)c2ccccc2)C2=NC(CCC(=O)O)C(=O)O2)cc1 (stereo not given)
> 50 µM: HCT-15
inactive: OVCAR-4 > 35.1 µM | COLO 205 > 50 µM | BT-549 > 50 µM | DU-145 > 50 µM | HT-29 > 50 µM | MCF7 > 50 µM | HL-60 49.9 µM | A498 > 50 µM | MOLT-4 > 50 µM | SNB-19 33.2 µM | SK-MEL-28 > 50 µM | SF-268 > 50 µM | UACC-257 > 50 µM | U-251 > 47.2 µM | SW-620 > 50 µM | Malme-3M > 31.3 µM | OVCAR-8 > 41.4 µM | LOX IMVI > 44.9 µM

Cc1cc(C)nc(NS(=O)(=O)c2ccc(NC(=O)c3ccc4nc5ccccc5c(Nc5ccc(S(=O)(=O)Nc6nc(C)cc(C)n6)cc5)c4c3)cc2)n1
> 100 µM: HCT-15
inactive: OVCAR-4 68.7 µM | COLO 205 > 100 µM | BT-549 19 µM | DU-145 > 100 µM | HT-29 64.9 µM | MCF7 37.8 µM | HL-60 33 µM | A498 > 100 µM | MOLT-4 28.5 µM | SNB-19 > 100 µM | SK-MEL-28 > 100 µM | SF-268 58.6 µM | UACC-257 > 100 µM | U-251 35.3 µM | SW-620 41.4 µM | Malme-3M 67.5 µM | OVCAR-8 > 100 µM | LOX IMVI 19.1 µM

COc1ccc(/C=C\c2cc(OC)c(OC)c(OC)c2)cc1OC(=O)CCC(=O)O
inactive: OVCAR-4 36 µM | BT-549 25.8 µM | UACC-257 > 10 µM
< 0.0001 µM: HCT-15
active: COLO 205 0.857 µM | DU-145 < 0.0001 µM | HT-29 0.774 µM | MCF7 < 0.01 µM | HL-60 < 0.0001 µM | A498 0.067 µM | MOLT-4 < 0.0001 µM | SNB-19 < 0.0001 µM | SK-MEL-28 < 0.01 µM | SF-268 < 0.0001 µM | U-251 < 0.0001 µM | SW-620 < 0.0001 µM | Malme-3M < 0.0001 µM | OVCAR-8 < 0.01 µM | LOX IMVI < 0.0001 µM

CC(=O)OCC1=C(C)C[C@H]([C@@H](COC(C)=O)C2CCC3C4C[C@H]5O[C@]56CC=CC(=O)[C@]6(C)C4CC[C@@]32C)OC1=O (stereo not given in full)
active: OVCAR-4 0.359 µM | COLO 205 0.307 µM | BT-549 0.26 µM | DU-145 0.414 µM | HT-29 0.123 µM | MCF7 0.00955 µM | HL-60 0.0384 µM | A498 0.624 µM | MOLT-4 0.0204 µM | SNB-19 0.681 µM | SK-MEL-28 0.3 µM | SF-268 0.379 µM | UACC-257 0.302 µM | U-251 0.329 µM | SW-620 0.115 µM | Malme-3M 0.274 µM | OVCAR-8 0.15 µM | LOX IMVI 0.122 µM
0.083 µM: HCT-15

C[N+](C)(N)CCC[N+](C)(C)N
> 100 µM: HCT-15
inactive: OVCAR-4 > 100 µM | COLO 205 > 100 µM | BT-549 > 100 µM | DU-145 > 100 µM | HT-29 > 100 µM | MCF7 > 100 µM | HL-60 > 100 µM | A498 > 100 µM | MOLT-4 > 100 µM | SNB-19 > 100 µM | SK-MEL-28 > 100 µM | SF-268 > 100 µM | UACC-257 > 100 µM | U-251 > 100 µM | SW-620 > 100 µM | Malme-3M > 100 µM | OVCAR-8 > 100 µM | LOX IMVI > 100 µM

From ChEMBL document CHEMBL1201862, “PubChem BioAssay data set” (2004)
